Earlier results on 1 compound are cited in US20250049023A1, “FUNGICIDAL COMPOSITIONS” (SYNGENTA CROP PROTECTION AG, priority 2021, published 2025).

This data set deals with Mycosphaerella graminicola (Septoria tritici). As to conditions: as disclosed in prior filings.

As for `COc1ccnc(C(=O)N[C@@H](C)C(=O)O[C@@H](C)C(c2ccc(F)cc2)c2ccc(F)cc2)c1OC(C)=O` [Florylpicoxamid, (1S)-2,2-bis(4-fluorophenyl)-1-methylethyl N-{[3-(acetyloxy)-4-methoxy-2-pyridyl]carbonyl}-L-alaninate], the “control of wheat leaf blotch disease (in words)” value is “particularly effective”.
